Measured values as given in US10165777B2, “Substituted pyrazolylpyrazole derivative and use of same as herbicide” (KYOYU AGRI CO., LTD., priority 2015, dated 2019).

Tests used:
Assay type in all cases: in vivo
Oryza sativa = assay: Paddy herbicidal activity test, phytotoxicity to transplanted rice; settings: rice transplanted in 2.0 leaf stage, 30 days
Procedure: (§1) 1. Paddy Herbicidal Activity Test Rice paddy soil was filled into a 1/10000 are pot followed by the addition of suitable amounts of water and chemical fertilizer, kneading, seeding with Echinochloa crus-galli, Monochoria vaginalis and Scirpus juncoides and maintaining in an irrigated state at a water depth of 3 cm. Wettable powders of Target Compound (I) shown in Table 1 prepared in compliance with the preparation examples were diluted with a suitable amount of water, rice plants in the 2.0 leaf stage were transplanted during 3.5 leaf stage of Echinochloa crus-galli, and treated by dropping in chemical in the prescribed amount per 10 are using a pipette. After treating for 30 days in a glass greenhouse at an average atmospheric temperature of 30° C., the herbicidal efficacy thereof was investigated. Evaluation of herbicidal efficacy was carried out by comparing growth inhibition rate (%) with an untreated group, while evaluation of phytotoxicity was carried out by comparing growth inhibition rate (%) with the state of a complete eradication group, and were evaluated at 11 levels indicated below.

Scirpus juncoides = assay: Paddy herbicidal activity test; settings: irrigated pot, 30 days
Procedure: as §1

Echinochloa crus-galli = assay: Paddy herbicidal activity test; settings: irrigated pot, treated at 3.5 leaf stage of Echinochloa crus-galli, 30 days
Procedure: as §1

Monochoria vaginalis = assay: Paddy herbicidal activity test; settings: irrigated pot, 30 days
Procedure: as §1

Digitaria ciliaris [1] = assay: Farming soil treatment test; settings: soil surface spray prior to weed growth, 30 days
Procedure: (§2) Field soil was filled into a 1/6000 are pot followed by seeding with Digitaria ciliaris, Chenopodium album and Amaranthus retroflexus and covering with soil. Wettable powders of compounds of formula (I) shown in Table 1 prepared in compliance with the preparation examples were diluted with water to the prescribed amount of chemical and uniformly sprayed onto each soil surface layer using 100 liters of sprayed water per 10 are prior to weed growth following seeding. After treating for 30 days in a glass greenhouse at an average atmospheric temperature of 30° C., the herbicidal efficacy thereof was investigated. Evaluation of herbicidal efficacy was carried out in the same manner as the above-mentioned Test Example 1.

Chenopodium album [2] = assay: Farming soil treatment test; settings: soil surface spray prior to weed growth, 30 days
Procedure: as §2

Amaranthus retroflexus [3] = assay: Farming soil treatment test; settings: soil surface spray prior to weed growth, 30 days
Procedure: as §2

Digitaria ciliaris [4] = assay: Weed foliar treatment test (Test 3, 1.0 to 2.0 leaf stage); settings: foliar spray at 1.0 to 2.0 leaf stage of Digitaria ciliaris, 3 weeks
Procedure: (§3) Soil was filled into a 1/6000 are pot followed by seeding with Digitaria ciliaris, Chenopodium album and Amaranthus retroflexus, covering with soil, and cultivating in a glass greenhouse at an average atmospheric temperature of 25° C. Wettable powders of Target Compound (I) shown in Table 1 prepared in compliance with the preparation examples were diluted with water to the prescribed amount of chemical and uniformly sprayed onto the weeds using 150 liters of sprayed water per 10 are when Digitaria ciliaris had grown to the 1.0 to 2.0 leaf stage. After treating for 3 weeks in a glass greenhouse at an average atmospheric temperature of 25° C., the herbicidal efficacy thereof was investigated. Evaluation of herbicidal efficacy was carried out in the same manner as the above-mentioned Test Example 1.

Chenopodium album [5] = assay: as above; settings: foliar spray at 1.0 to 2.0 leaf stage of Digitaria ciliaris, 3 weeks
Procedure: as §3

Amaranthus retroflexus [6] = assay: as above; settings: foliar spray at 1.0 to 2.0 leaf stage of Digitaria ciliaris, 3 weeks
Procedure: as §3

Digitaria ciliaris [7] = assay: Weed foliar treatment test (Test 4, 4.0 to 5.0 leaf stage); settings: 10 g a.i./10 a; foliar spray at 4.0 to 5.0 leaf stage of Digitaria ciliaris (plant height 10 cm to 15 cm); 20 days
Procedure: (§4) Field soil was filled into a 1/4500 are pot followed by seeding with Digitaria ciliaris and Galinsoga parviflora, covering with soil and cultivating in a glass greenhouse at an average atmospheric temperature of 25° C.
(§5) Wettable powders of Target Compound (I) shown in Table 1 prepared in compliance with the preparation examples were diluted with water to the prescribed amount of chemical and uniformly sprayed onto the weeds using 100 liters of sprayed water per 10 are when Digitaria ciliaris had grown to the 4.0 to 5.0 leaf stage (plant height: 10 cm to 15 cm).
(§6) After treating for 20 days in a glass greenhouse at an average atmospheric temperature of 25° C., the herbicidal efficacy thereof was investigated.
(§7) Evaluation of herbicidal efficacy was carried out in the same manner as the above-mentioned Test Example 1.

Galinsoga parviflora = assay: as above; settings: 10 g a.i./10 a; foliar spray at 4.0 to 5.0 leaf stage of Digitaria ciliaris; 20 days
Procedure: as §4, §5, §6, §7

With `N#Cc1cnn(-c2nn3c(c2Cl)CCCC3)c1N=CC1CCCCC1` [Compound 1, 1-(3-chloro-4,5,6,7-tetrahydropyrazolo[1,5-a]pyridin-2-yl)-5-(cyclohexylmethyleneamino)pyrazole-4-carbonitrile] the “phytotoxicity, Oryza sativa” value (Oryza sativa; 1 g a.i./10 a) was 0 (0% to less than 10% (growth inhibition rate)), the “phytotoxicity, Oryza sativa” value (Oryza sativa; 5 g a.i./10 a) was 0 (0% to less than 10% (growth inhibition rate)) and the “herbicidal efficacy, Scirpus juncoides” value (Scirpus juncoides; 1 g a.i./10 a) was 9 (90% to less than 100%). The “herbicidal efficacy, Scirpus juncoides” value (Scirpus juncoides; 5 g a.i./10 a) was 10 (100%), the “herbicidal efficacy, Echinochloa crus-galli” value (Echinochloa crus-galli; 1 g a.i./10 a) was 10 (100%) and the “herbicidal efficacy, Echinochloa crus-galli” value (Echinochloa crus-galli; 5 g a.i./10 a) was 10 (100%). For the same compound, the “herbicidal efficacy, Monochoria vaginalis” value (Monochoria vaginalis; 1 g a.i./10 a) was 9 (90% to less than 100%), the “herbicidal efficacy, Monochoria vaginalis” value (Monochoria vaginalis; 5 g a.i./10 a) was 10 (100%) and the “herbicidal efficacy, Digitaria ciliaris” value (Digitaria ciliaris [1]; 5 g a.i./10 a) was 9 (90% to less than 100%). For the same compound, the “herbicidal efficacy, Digitaria ciliaris” value (Digitaria ciliaris [1]; 10 g a.i./10 a) was 9 (90% to less than 100%), the “herbicidal efficacy, Chenopodium album” value (Chenopodium album [2]; 5 g a.i./10 a) was 9 (90% to less than 100%) and the “herbicidal efficacy, Chenopodium album” value (Chenopodium album [2]; 10 g a.i./10 a) was 10 (100%). For the same compound, the “herbicidal efficacy, Amaranthus retroflexus” value (Amaranthus retroflexus [3]; 5 g a.i./10 a) was 10 (100%), the “herbicidal efficacy, Amaranthus retroflexus” value (Amaranthus retroflexus [3]; 10 g a.i./10 a) was 10 (100%) and the “herbicidal efficacy, Digitaria ciliaris” value (Digitaria ciliaris [4]; 5 g a.i./10 a) was 10 (100%). For the same compound, the “herbicidal efficacy, Digitaria ciliaris” value (Digitaria ciliaris [4]; 10 g a.i./10 a) was 10 (100%), the “herbicidal efficacy, Chenopodium album” value (Chenopodium album [5]; 5 g a.i./10 a) was 10 (100%) and the “herbicidal efficacy, Chenopodium album” value (Chenopodium album [5]; 10 g a.i./10 a) was 10 (100%). The “herbicidal efficacy, Amaranthus retroflexus” value (Amaranthus retroflexus [6]; 5 g a.i./10 a) was 10 (100%) and the “herbicidal efficacy, Amaranthus retroflexus” value (Amaranthus retroflexus [6]; 10 g a.i./10 a) was 10 (100%).
`N#Cc1cnn(-c2nn3c(c2Cl)CCCC3)c1N=C1CCCC1` [Compound 8] was tested, and the “herbicidal efficacy, Digitaria ciliaris” value (Digitaria ciliaris [7]) was 10 (100%) and the “herbicidal efficacy, Galinsoga parviflora” value (Galinsoga parviflora) was 10 (100%).
For `N#Cc1cnn(-c2nn3c(c2Cl)CCCC3)c1N=Cc1ccccc1OC(F)F` [Compound 12], the “herbicidal efficacy, Digitaria ciliaris” value (Digitaria ciliaris [7]) was 10 (100%) and the “herbicidal efficacy, Galinsoga parviflora” value (Galinsoga parviflora) was 10 (100%).
In the case of `N#Cc1cnn(-c2nn3c(c2Cl)CCCC3)c1N=Cc1ccccc1F` [Compound 13], the “herbicidal efficacy, Digitaria ciliaris” value (Digitaria ciliaris [7]) is reported as 10 (100%) and the “herbicidal efficacy, Galinsoga parviflora” value (Galinsoga parviflora) is reported as 10 (100%).
For `N#Cc1cnn(-c2nn3c(c2Cl)CCCC3)c1N=Cc1cccc(Cl)c1` [Compound 17], the “herbicidal efficacy, Digitaria ciliaris” value (Digitaria ciliaris [7]) was 10 (100%) and the “herbicidal efficacy, Galinsoga parviflora” value (Galinsoga parviflora) was 10 (100%).
In the case of `Cc1ccc(C=Nc2c(C#N)cnn2-c2nn3c(c2Cl)CCCC3)cc1` [Compound 18], the “herbicidal efficacy, Digitaria ciliaris” value (Digitaria ciliaris [7]) is reported as 10 (100%) and the “herbicidal efficacy, Galinsoga parviflora” value (Galinsoga parviflora) is reported as 10 (100%).
For `N#Cc1cnn(-c2nn3c(c2Cl)CCCC3)c1N=Cc1ccc(C(F)(F)F)cc1` [Compound 19], the “herbicidal efficacy, Digitaria ciliaris” value (Digitaria ciliaris [7]) was 10 (100%) and the “herbicidal efficacy, Galinsoga parviflora” value (Galinsoga parviflora) was 10 (100%).
In the case of `N#Cc1cnn(-c2nn3c(c2Cl)CCCC3)c1N=Cc1ccc(Cl)cc1` [Compound 20], the “herbicidal efficacy, Digitaria ciliaris” value (Digitaria ciliaris [7]) is reported as 10 (100%) and the “herbicidal efficacy, Galinsoga parviflora” value (Galinsoga parviflora) is reported as 10 (100%).
`N#Cc1cnn(-c2nn3c(c2Cl)CCCC3)c1N=Cc1ccccn1` [Compound 21] was tested, and the “herbicidal efficacy, Digitaria ciliaris” value (Digitaria ciliaris [7]) was 10 (100%) and the “herbicidal efficacy, Galinsoga parviflora” value (Galinsoga parviflora) was 10 (100%).
With `N#Cc1cnn(-c2nn3c(c2Cl)CCCC3)c1N=Cc1cccnc1` [Compound 22] the “herbicidal efficacy, Digitaria ciliaris” value (Digitaria ciliaris [7]) was 9 (90% to less than 100%), the “herbicidal efficacy, Galinsoga parviflora” value (Galinsoga parviflora) was 10 (100%) and the “phytotoxicity, Oryza sativa” value (Oryza sativa; 1 g a.i./10 a) was 0 (0% to less than 10% (growth inhibition rate)). For the same compound, the “phytotoxicity, Oryza sativa” value (Oryza sativa; 5 g a.i./10 a) was 1 (10% to less than 20%), the “herbicidal efficacy, Scirpus juncoides” value (Scirpus juncoides; 1 g a.i./10 a) was 10 (100%) and the “herbicidal efficacy, Scirpus juncoides” value (Scirpus juncoides; 5 g a.i./10 a) was 10 (100%). The “herbicidal efficacy, Echinochloa crus-galli” value (Echinochloa crus-galli; 1 g a.i./10 a) was 10 (100%), the “herbicidal efficacy, Echinochloa crus-galli” value (Echinochloa crus-galli; 5 g a.i./10 a) was 10 (100%) and the “herbicidal efficacy, Monochoria vaginalis” value (Monochoria vaginalis; 1 g a.i./10 a) was 10 (100%). For the same compound, the “herbicidal efficacy, Monochoria vaginalis” value (Monochoria vaginalis; 5 g a.i./10 a) was 10 (100%), the “herbicidal efficacy, Digitaria ciliaris” value (Digitaria ciliaris [1]; 5 g a.i./10 a) was 9 (90% to less than 100%) and the “herbicidal efficacy, Digitaria ciliaris” value (Digitaria ciliaris [1]; 10 g a.i./10 a) was 9 (90% to less than 100%). For the same compound, the “herbicidal efficacy, Chenopodium album” value (Chenopodium album [2]; 5 g a.i./10 a) was 9 (90% to less than 100%), the “herbicidal efficacy, Chenopodium album” value (Chenopodium album [2]; 10 g a.i./10 a) was 10 (100%) and the “herbicidal efficacy, Amaranthus retroflexus” value (Amaranthus retroflexus [3]; 5 g a.i./10 a) was 10 (100%). The “herbicidal efficacy, Amaranthus retroflexus” value (Amaranthus retroflexus [3]; 10 g a.i./10 a) was 10 (100%).
With `CC(=Nc1c(C#N)cnn1-c1nn2c(c1Cl)CCCC2)c1ccccn1` [Compound 24] the “herbicidal efficacy, Digitaria ciliaris” value (Digitaria ciliaris [7]) was 10 (100%) and the “herbicidal efficacy, Galinsoga parviflora” value (Galinsoga parviflora) was 10 (100%).
For `CC(=Nc1c(C#N)cnn1-c1nn2c(c1Cl)CCCC2)c1cccnc1` [Compound 25], the “herbicidal efficacy, Digitaria ciliaris” value (Digitaria ciliaris [7]) was 10 (100%) and the “herbicidal efficacy, Galinsoga parviflora” value (Galinsoga parviflora) was 10 (100%).
`CC(=Nc1c(C#N)cnn1-c1nn2c(c1Cl)CCCC2)c1cnccn1` [Compound 27] was tested, and the “herbicidal efficacy, Digitaria ciliaris” value (Digitaria ciliaris [7]) was 10 (100%) and the “herbicidal efficacy, Galinsoga parviflora” value (Galinsoga parviflora) was 10 (100%).
In the case of `N#Cc1cnn(-c2nn3c(c2Cl)CCCC3)c1N=Cc1ccc[nH]1` [Compound 28], the “herbicidal efficacy, Digitaria ciliaris” value (Digitaria ciliaris [7]) is reported as 10 (100%) and the “herbicidal efficacy, Galinsoga parviflora” value (Galinsoga parviflora) is reported as 10 (100%).
In the case of `CC(=Nc1c(C#N)cnn1-c1nn2c(c1Cl)CCCC2)c1ccc[nH]1` [Compound 29], the “herbicidal efficacy, Digitaria ciliaris” value (Digitaria ciliaris [7]) is reported as 10 (100%), the “herbicidal efficacy, Galinsoga parviflora” value (Galinsoga parviflora) is reported as 10 (100%) and the “herbicidal efficacy, Digitaria ciliaris” value (Digitaria ciliaris [4]; 5 g a.i./10 a) is reported as 9 (90% to less than 100%). For the same compound, the “herbicidal efficacy, Digitaria ciliaris” value (Digitaria ciliaris [4]; 10 g a.i./10 a) was 10 (100%), the “herbicidal efficacy, Chenopodium album” value (Chenopodium album [5]; 5 g a.i./10 a) was 10 (100%) and the “herbicidal efficacy, Chenopodium album” value (Chenopodium album [5]; 10 g a.i./10 a) was 10 (100%). For the same compound, the “herbicidal efficacy, Amaranthus retroflexus” value (Amaranthus retroflexus [6]; 5 g a.i./10 a) was 9 (90% to less than 100%) and the “herbicidal efficacy, Amaranthus retroflexus” value (Amaranthus retroflexus [6]; 10 g a.i./10 a) was 10 (100%).
With `N#Cc1cnn(-c2nn3c(c2Cl)CCCC3)c1N=Cc1ccsc1` [Compound 31] the “herbicidal efficacy, Digitaria ciliaris” value (Digitaria ciliaris [7]) was 10 (100%) and the “herbicidal efficacy, Galinsoga parviflora” value (Galinsoga parviflora) was 10 (100%).
`N#Cc1cnn(-c2nn3c(c2Cl)CCCC3)c1N=Cc1ccoc1` [Compound 32] was tested, and the “herbicidal efficacy, Digitaria ciliaris” value (Digitaria ciliaris [7]) was 10 (100%) and the “herbicidal efficacy, Galinsoga parviflora” value (Galinsoga parviflora) was 10 (100%).
For `CCOC=Nc1c(C#N)cnn1-c1nn2c(c1Cl)CCCC2` [Compound 34], the “herbicidal efficacy, Digitaria ciliaris” value (Digitaria ciliaris [7]) was 9 (90% to less than 100%) and the “herbicidal efficacy, Galinsoga parviflora” value (Galinsoga parviflora) was 10 (100%).
`CC(C)OC=Nc1c(C#N)cnn1-c1nn2c(c1Cl)CCCC2` [Compound 36] was tested, and the “herbicidal efficacy, Digitaria ciliaris” value (Digitaria ciliaris [7]) was 10 (100%) and the “herbicidal efficacy, Galinsoga parviflora” value (Galinsoga parviflora) was 10 (100%).
With `CCCCOC=Nc1c(C#N)cnn1-c1nn2c(c1Cl)CCCC2` [Compound 37] the “herbicidal efficacy, Digitaria ciliaris” value (Digitaria ciliaris [7]) was 10 (100%) and the “herbicidal efficacy, Galinsoga parviflora” value (Galinsoga parviflora) was 10 (100%).
